Data from ChEMBL document CHEMBL1150375, “Novel inhibitors of the v-raf murine sarcoma viral oncogene homologue B1 (BRAF) based on a 2,6-disubstituted pyrazine scaffold” (J Med Chem, 2008).
pIC50: −log10 of the molar value.

Target: RAF proto-oncogene serine/threonine-protein kinase (Homo sapiens, UniProt P04049)
Assay: Inhibition of CRAF

RAF proto-oncogene serine/threonine-protein kinase, sequence (P04049 whole entry): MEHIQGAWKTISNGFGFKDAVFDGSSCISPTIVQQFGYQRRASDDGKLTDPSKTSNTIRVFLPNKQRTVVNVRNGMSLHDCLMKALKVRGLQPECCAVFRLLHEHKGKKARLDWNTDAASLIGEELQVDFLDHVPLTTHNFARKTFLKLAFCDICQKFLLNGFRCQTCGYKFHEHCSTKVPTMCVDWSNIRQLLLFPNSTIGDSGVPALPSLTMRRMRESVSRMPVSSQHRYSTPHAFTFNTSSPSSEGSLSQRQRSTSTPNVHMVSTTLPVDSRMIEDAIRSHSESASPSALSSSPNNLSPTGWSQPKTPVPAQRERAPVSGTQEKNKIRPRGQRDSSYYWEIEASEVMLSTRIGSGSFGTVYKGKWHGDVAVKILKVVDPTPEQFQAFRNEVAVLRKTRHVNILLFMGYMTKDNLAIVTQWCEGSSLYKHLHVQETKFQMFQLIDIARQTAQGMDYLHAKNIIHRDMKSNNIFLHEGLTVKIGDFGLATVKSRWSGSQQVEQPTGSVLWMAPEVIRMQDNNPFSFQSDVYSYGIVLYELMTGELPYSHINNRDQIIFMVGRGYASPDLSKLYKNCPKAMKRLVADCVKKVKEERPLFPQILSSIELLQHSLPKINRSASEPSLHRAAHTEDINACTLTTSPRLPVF

pIC50 | SMILES
5.82 | CC(=O)Nc1ccc(Oc2cncc(Nc3cccc(-c4cnco4)c3)n2)c2ccccc12
< 4.00 | COc1cc(Nc2cncc(-c3ccc(NC(=O)Nc4ccccc4)cc3)n2)cc(OC)c1OC
4.69 | COc1cc(Nc2cncc(Oc3ccc(NC(C)=O)c4ccccc34)n2)cc(OC)c1OC
5.16 | CC(=O)Nc1cccc2c(Oc3cncc(Nc4cccc(-c5cnco5)c4)n3)cccc12
4.42 | COc1cc(Nc2cncc(-c3ccc(C(N)=O)cc3)n2)cc(OC)c1OC

Tested on: not listed separately
Assay: Selectivity ratio of IC50 for CRAF to IC50 for human BRAF V600E mutant

Ratio IC50 | SMILES
5 | CC(=O)Nc1ccc(Oc2cncc(Nc3cccc(-c4cnco4)c3)n2)c2ccccc12
> 86 | COc1cc(Nc2cncc(-c3ccc(NC(=O)Nc4ccccc4)cc3)n2)cc(OC)c1OC
36 | COc1cc(Nc2cncc(Oc3ccc(NC(C)=O)c4ccccc34)n2)cc(OC)c1OC
11 | CC(=O)Nc1cccc2c(Oc3cncc(Nc4cccc(-c5cnco5)c4)n3)cccc12
34 | COc1cc(Nc2cncc(-c3ccc(C(N)=O)cc3)n2)cc(OC)c1OC

Target: Serine/threonine-protein kinase B-raf (Homo sapiens, UniProt P15056, V600E)
Sequence (P15056 2-766 V600E limits assumed): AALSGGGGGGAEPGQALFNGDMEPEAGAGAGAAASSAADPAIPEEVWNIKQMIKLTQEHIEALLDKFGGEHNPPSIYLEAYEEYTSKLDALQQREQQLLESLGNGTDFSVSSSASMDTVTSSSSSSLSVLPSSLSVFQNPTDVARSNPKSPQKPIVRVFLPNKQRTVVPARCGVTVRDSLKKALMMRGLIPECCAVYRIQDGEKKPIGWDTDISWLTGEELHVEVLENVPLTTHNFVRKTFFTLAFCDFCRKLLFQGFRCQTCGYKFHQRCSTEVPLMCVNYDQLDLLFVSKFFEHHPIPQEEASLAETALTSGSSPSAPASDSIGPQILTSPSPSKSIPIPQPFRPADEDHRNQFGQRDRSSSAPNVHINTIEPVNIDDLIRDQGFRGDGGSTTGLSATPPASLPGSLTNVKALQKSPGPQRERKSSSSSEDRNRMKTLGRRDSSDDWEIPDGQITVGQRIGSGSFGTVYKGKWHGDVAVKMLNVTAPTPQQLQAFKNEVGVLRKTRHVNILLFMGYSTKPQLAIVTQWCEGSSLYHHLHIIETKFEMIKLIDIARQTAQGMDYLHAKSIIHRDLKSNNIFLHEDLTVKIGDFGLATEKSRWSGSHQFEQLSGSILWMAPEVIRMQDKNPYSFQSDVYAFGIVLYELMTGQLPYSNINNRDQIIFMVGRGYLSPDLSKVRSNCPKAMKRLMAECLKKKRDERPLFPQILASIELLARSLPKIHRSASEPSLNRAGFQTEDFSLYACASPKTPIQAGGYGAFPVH
Description: Inhibition of human BRAF V600E mutant expressed in SF9 cells

pIC50 | SMILES
5.42 | COc1cc(Nc2cncc(Oc3cccc4cnccc34)n2)cc(OC)c1OC
4.96 | COc1cc(Nc2cncc(Oc3cccc(/C(C)=N/O)c3)n2)cc(OC)c1OC
4.80 | COc1cc(Nc2cncc(Nc3ccc(NC(C)=O)cc3)n2)cc(OC)c1OC
4.59 | COc1cc(Nc2cncc(Oc3ccc(/C(C)=N/O)cc3)n2)cc(OC)c1OC
4.74 | COc1cc(Nc2cncc(Oc3cccc4c3CCCC4)n2)cc(OC)c1OC
5.13 | COc1cc(Nc2cncc(Oc3cccc4[nH]ccc34)n2)cc(OC)c1OC
4.36 | COc1cc(Nc2cncc(Oc3ccc4c(c3)OC(=O)CC4)n2)cc(OC)c1OC
4.04 | COc1cc(Nc2cncc(Oc3ccc4c(c3)CCC/C4=N\O)n2)cc(OC)c1OC
4.54 | COc1cc(Nc2cncc(Oc3ccc4ncccc4c3)n2)cc(OC)c1OC
5.60 | CC(=O)Nc1cccc2c(Oc3cncc(Nc4ccc5c(c4)C(=O)OC5)n3)cccc12
5.54 | COc1cc(Nc2cncc(-c3ccncc3)n2)cc(OC)c1OC
5.01 | COc1cc(Nc2cncc(Sc3cccc4ccccc34)n2)cc(OC)c1OC
4.92 | COc1cc(Nc2cncc(Nc3cccc(F)c3)n2)cc(OC)c1OC
4.72 | COc1cc(Nc2cncc(Nc3ccc(F)cc3)n2)cc(OC)c1OC
5.26 | COc1cc(Nc2cncc(Oc3ccc(NC(C)=O)cc3)n2)cc(OC)c1OC
4.74 | COc1cc(Nc2cncc(Oc3cccc4c3CCC4=O)n2)cc(OC)c1OC
5.40 | COc1cc(Nc2cncc(-c3cccc(O)c3)n2)cc(OC)c1OC
4.07 | COc1cc(Nc2cncc(Oc3ccc4c(c3)/C(=N/O)CC4)n2)cc(OC)c1OC
4.85 | COc1cc(Nc2cncc(Nc3cccc(NC(C)=O)c3)n2)cc(OC)c1OC

pIC50 | SMILES
5.33 | COc1cc(Nc2cncc(Nc3ccncc3)n2)cc(OC)c1OC
4.47 | COc1cc(Nc2cncc(Oc3ccc(C(C)=O)cc3)n2)cc(OC)c1OC
4.12 | COc1cc(Nc2cncc(Oc3ccc4c(c3)CCCC4=O)n2)cc(OC)c1OC
< 4.00 | COc1cc(Nc2cncc(Oc3ccc4ccccc4c3)n2)cc(OC)c1OC
6.51 | CC(=O)Nc1ccc(Oc2cncc(Nc3cccc(-c4cnco4)c3)n2)c2ccccc12
5.52 | COc1cc(Nc2cncc(-c3ccc(C=O)cc3)n2)cc(OC)c1OC
4.89 | COc1cc(Nc2cncc(Oc3cccc(NC(C)=O)c3)n2)cc(OC)c1OC
4.59 | COc1cc(Nc2cncc(-c3cccc(NC(C)=O)c3)c2)cc(OC)c1OC
4.66 | COc1cc(Nc2cncc(Oc3ccc4c(c3)C(=O)CC4)n2)cc(OC)c1OC
5.85 | COc1cc(Nc2cncc(Oc3cccc4c3CC/C4=N\O)n2)cc(OC)c1OC
4.80 | COc1cc(Nc2cncc(Nc3ccccc3)n2)cc(OC)c1OC
5.94 | COc1cc(Nc2cncc(-c3ccc(NC(=O)Nc4ccccc4)cc3)n2)cc(OC)c1OC
4.66 | COc1cc(Nc2cncc(-c3cccnc3)n2)cc(OC)c1OC
4.54 | COc1cc(Nc2cncc(Oc3cccc4c3CCCC4=O)n2)cc(OC)c1OC
4.35 | COc1cc(Nc2cncc(Oc3cccnc3)n2)cc(OC)c1OC
4.35 | COc1cc(Nc2cncc(Oc3ccccc3F)n2)cc(OC)c1OC
6.25 | COc1cc(Nc2cncc(Oc3ccc(NC(C)=O)c4ccccc34)n2)cc(OC)c1OC
5.00 | COc1cc(Nc2cncc(Oc3ccccc3-c3ccccc3)n2)cc(OC)c1OC
4.80 | COc1cc(Nc2cncc(Oc3ccncc3)n2)cc(OC)c1OC

pIC50 | SMILES
4.72 | COc1cc(Nc2cncc(Oc3cccc(C(C)=O)c3)n2)cc(OC)c1OC
4.25 | COc1cc(Nc2cncc(Oc3cccc(F)c3)n2)cc(OC)c1OC
4.15 | COc1cc(Nc2cncc(Oc3ccc4c(c3)CCC4=O)n2)cc(OC)c1OC
4.74 | COc1cc(Nc2cncc(-c3ccc(O)cc3)n2)cc(OC)c1OC
5.31 | COc1cc(Nc2cncc(Nc3ccc(O)cc3)n2)cc(OC)c1OC
6.19 | CC(=O)Nc1cccc2c(Oc3cncc(Nc4cccc(-c5cnco5)c4)n3)cccc12
4.51 | COc1cc(Nc2cncc(Oc3ccccc3)n2)cc(OC)c1OC
5.46 | COc1cc(Nc2cncc(-c3cccc(NC(C)=O)c3)n2)cc(OC)c1OC
5.01 | COc1cc(Nc2cncc(-c3cccc(C#N)c3)n2)cc(OC)c1OC
4.85 | CCOC(=O)c1cccc(-c2cncc(Nc3cc(OC)c(OC)c(OC)c3)n2)c1
5.95 | COc1cc(Nc2cncc(-c3ccc(C(N)=O)cc3)n2)cc(OC)c1OC
4.59 | COc1cc(Nc2cncc(-c3ccc(CO)cc3)n2)cc(OC)c1OC
< 4.00 | COc1cc(Nc2nc(-c3cccc(NC(C)=O)c3)cnc2NC(C)=O)cc(OC)c1OC
5.82 | COc1cc(Nc2cncc(Oc3ccnc4ccccc34)n2)cc(OC)c1OC
5.00 | COc1cc(Nc2cncc(Oc3cccc4ncccc34)n2)cc(OC)c1OC
6.39 | COc1cc(Nc2cncc(Oc3cccc4c(NC(C)=O)cccc34)n2)cc(OC)c1OC
5.92 | COc1cc(Nc2cncc(Oc3cccc4ccccc34)n2)cc(OC)c1OC
4.44 | COc1cc(Nc2cncc(Oc3cccc(Cl)c3)n2)cc(OC)c1OC
